Assay results: US20250136574A1, “SELECTIVE AGENTS TARGETING MYCOBACTERIUM TUBERCULOSIS” (priority 2022, published 2025)
Like-named read-outs stand apart in the source and are kept apart here.

Key:
[1] = Liver microsomal stability, mouse; conditions: mouse liver microsomes, n = 1
Plasma stability, human = conditions: n = 1
[2] = Human plasma protein binding; conditions: human, plasma
[3] = Liver microsomal stability, human; conditions: human liver microsomes, n = 1
PBS solubility = conditions: highest concentration with no detectable precipitate; phosphate-buffered saline
Plasma stability, mouse = conditions: n = 1
in vitro = conditions: human, plasma
[4] = microsomes
[5] = microsomes; remark: listed apart in the source
human plasma protein = assay: Human plasma protein binding; conditions: human plasma protein binding

SMILES | liver microsomal stability CLint (μL/min/mg), mouse [1] | liver microsomal stability t1/2 (min), mouse [1] | plasma stability t1/2 (min), human (Plasma stability, human) | fraction unbound [2] | liver microsomal stability CLint (μL/min/mg), human [3] | liver microsomal stability t1/2 (min), human [3] | PBS solubility (PBS solubility) | plasma stability t1/2 (min), mouse (Plasma stability, mouse) | fraction unbound (in vitro) | liver microsomal stability CLint (μL/min/mg), mouse [4] | liver microsomal stability CLint (μL/min/mg), human [5] | plasma protein binding (human plasma protein)
CCCCCCC#Cc1cncc(-c2nnc(SCc3cc([N+](=O)[O-])cc([N+](=O)[O-])c3)n2C)c1 [drawing 140] | 287 µL/min/mg | 4.8 min | >480; >480 min | < 0.001 | 357 µL/min/mg | 3.9 min | <1.6 µM | >480; >480 min | – | – | – | –
CCCCCCC#Cc1cncc(-c2nnc(SCc3ccc([N+](=O)[O-])o3)n2C2CC2)c1 [drawing 141] | – | 2.5 min | 259 min | – | – | 1.9 min | 3.1 µM | 238 min | < 0.001 | 546 µL/min/mg | 470 µL/min/mg | –
CC(=O)CC(c1ccccc1)c1c(O)c2ccccc2oc1=O (centres unmarked) [warfarin] | – | – | – | – | – | – | – | – | – | – | – | >99.9%
